Read-outs that look alike come from different tables or passages of the source.
Biological target: P. falciparum apicoplast DNA polymerase (Pf-apPOL) (Plasmodium falciparum, UniProt Q8ILY1)
Test: Fluorescence-based high-throughput DNA polymerase assay (molecular beacon), primary screen and dose-response
Assay type: biochemical
Conditions: for DNA Pol: 90 min, 10 µM; for % inhibition apPOL 180' 2.5 / % inhibition apPOL 180' 5 / % inhibition apPOL 180' 10 / % inhibition apPOL 180' 20 / % inhibition apPOL 180' 40 / % inhibition apPOL 180' 80: read at 180'
Method in brief: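 Single-point screening used 10 µM compound with 20 nM polymerase, 20 nM hairpin substrate and 6 µM dNTPs for 90 min at 25 °C. Confirmatory titrations (2.5–80 µM) followed fluorescence at three times, and IC50 was derived from a fit including a cooperativity term n.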

[1] = first dose-response set, concentration 80

P. falciparum apicoplast DNA polymerase (Pf-apPOL), sequence (Q8ILY1 entry or part of it): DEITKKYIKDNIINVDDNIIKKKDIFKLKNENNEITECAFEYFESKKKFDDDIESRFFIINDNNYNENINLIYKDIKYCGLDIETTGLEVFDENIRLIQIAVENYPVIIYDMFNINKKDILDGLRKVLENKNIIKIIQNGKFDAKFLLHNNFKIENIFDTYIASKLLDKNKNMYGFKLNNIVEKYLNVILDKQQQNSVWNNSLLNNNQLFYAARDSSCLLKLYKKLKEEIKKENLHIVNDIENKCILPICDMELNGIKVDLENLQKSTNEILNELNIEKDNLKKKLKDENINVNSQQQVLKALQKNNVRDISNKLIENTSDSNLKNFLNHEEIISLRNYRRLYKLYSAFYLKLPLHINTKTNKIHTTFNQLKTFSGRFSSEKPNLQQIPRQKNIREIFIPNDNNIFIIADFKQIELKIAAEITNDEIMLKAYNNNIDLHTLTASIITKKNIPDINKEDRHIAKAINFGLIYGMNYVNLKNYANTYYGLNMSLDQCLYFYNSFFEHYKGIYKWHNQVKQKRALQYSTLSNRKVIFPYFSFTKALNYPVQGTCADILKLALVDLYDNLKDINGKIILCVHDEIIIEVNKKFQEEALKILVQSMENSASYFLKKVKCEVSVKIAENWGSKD

SMILES: CC1(C)CC(=O)C2=C(C1)OC1=C(C(=O)CC(C)(C)C1)C2c1ccc(O)cc1 [KU0194226]
- DNA Pol ("DNA Pol" of the 186 hits list (screen value)): 31
- % inhibition Apo pol 10' (DRC-1, concentration 2.5): 1.4755%
- % inhibition Apo pol 10' (DRC-1, concentration 5): 6.619%
- % inhibition Apo pol 10' (DRC-1, concentration 10): 20.9207%
- % inhibition Apo pol 10' (DRC-1, concentration 20): 40.5777%
- % inhibition Apo pol 10' (DRC-1, concentration 40): 75.7382%
- % inhibition Apo pol 10' (DRC-1, concentration 80): 84.2344%
- % inhibition Apol 90' (DRC-1, concentration 2.5): 3.436%
- % inhibition Apol 90' (DRC-1, concentration 5): 6.7212%
- % inhibition Apol 90' (DRC-1, concentration 10): 20.1854%
- % inhibition Apol 90' (DRC-1, concentration 20): 38.6225%
- % inhibition Apol 90' (DRC-1, concentration 40): 72.348%
- % inhibition Apol 90' (DRC-1, concentration 80): 80.6214%
- % inhibition apPOL 180' (DRC-1, concentration 2.5): 2.939%
- % inhibition apPOL 180' (DRC-1, concentration 5): 5.25%
- % inhibition apPOL 180' (DRC-1, concentration 10): 19.133%
- % inhibition apPOL 180' (DRC-1, concentration 20): 35.7891%
- % inhibition apPOL 180' (DRC-1, concentration 40): 67.9328%
- % inhibition apPOL 180' (DRC-1, concentration 80): 76.0012%
- % inhibition Apo pol 5' (DRC-2, concentration 2.5): 2.55%
- % inhibition Apo pol 5' (DRC-2, concentration 5): 2.7%
- % inhibition Apo pol 5' (DRC-2, concentration 10): 17%
- % inhibition Apo pol 5' (DRC-2, concentration 20): 21%
- % inhibition Apo pol 5' (DRC-2, concentration 40): 37%
- % inhibition Apo pol 5' (DRC-2, concentration 80): 35%
- % inhibition Apol 40' (DRC-2, concentration 2.5): 5.61%
- % inhibition Apol 40' (DRC-2, concentration 5): -0.353%
- % inhibition Apol 40' (DRC-2, concentration 10): 23%
- % inhibition Apol 40' (DRC-2, concentration 20): 31%
- % inhibition Apol 40' (DRC-2, concentration 40): 52%
- % inhibition Apol 40' (DRC-2, concentration 80): 59%
- % inhibition ApPOL 90' (DRC-2, concentration 2.5): 6%
- % inhibition ApPOL 90' (DRC-2, concentration 5): -4.67%
- % inhibition ApPOL 90' (DRC-2, concentration 10): 27%
- % inhibition ApPOL 90' (DRC-2, concentration 20): 34%
- % inhibition ApPOL 90' (DRC-2, concentration 40): 57%
- % inhibition ApPOL 90' (DRC-2, concentration 80): 65%
- % inhibition apPOL 180' (DRC-2, concentration 2.5): 5.45%
- % inhibition apPOL 180' (DRC-2, concentration 5): -63%
- % inhibition apPOL 180' (DRC-2, concentration 10): 27%
- % inhibition apPOL 180' (DRC-2, concentration 20): 36%
- % inhibition apPOL 180' (DRC-2, concentration 40): 61%
- % inhibition apPOL 180' (DRC-2, concentration 80): 70%
- DNA Pol (primary screen value, DNA Pol): 31

SMILES: CCCc1ccc(Oc2coc3cc(OC)ccc3c2=O)cc1 [KU0193249]
- DNA Pol (186 hits, DNA Pol (screen value), unit not given): 73
- DNA Pol ('DNA Pol' (screen value), unit not given): 73
- % inhibition Apo pol 10' 2.5 (DRC-1, read at 10', concentration 2.5): 7.919%
- % inhibition Apo pol 10' 5 (DRC-1, read at 10', concentration 5): 6.719%
- % inhibition Apo pol 10' 10 (DRC-1, read at 10', concentration 10): 11.6444%
- % inhibition Apo pol 10' 20 (DRC-1, read at 10', concentration 20): 12.8685%
- % inhibition Apo pol 10' 40 (DRC-1, read at 10', concentration 40): 28.2048%
- % inhibition Apo pol 10' 80 (DRC-1, read at 10', concentration 80): 56.0479%
- % inhibition Apol 90' 2.5 (DRC-1, read at 90', concentration 2.5): 14.2398%
- % inhibition Apol 90' 5 (DRC-1, read at 90', concentration 5): 11.6391%
- % inhibition Apol 90' 10 (DRC-1, read at 90', concentration 10): 17.4321%
- % inhibition Apol 90' 20 (DRC-1, read at 90', concentration 20): 14.1885%
- % inhibition Apol 90' 40 (DRC-1, read at 90', concentration 40): 28.8567%
- % inhibition Apol 90' 80 (DRC-1, read at 90', concentration 80): 54.3218%
- % inhibition apPOL 180' 2.5 (DRC-1, concentration 2.5): 21.2124%
- % inhibition apPOL 180' 5 (DRC-1, concentration 5): 19.9497%
- % inhibition apPOL 180' 10 (DRC-1, concentration 10): 25.9143%
- % inhibition apPOL 180' 20 (DRC-1, concentration 20): 21.3211%
- % inhibition apPOL 180' 40 (DRC-1, concentration 40): 35.4665%
- % inhibition apPOL 180' 80 (DRC-1, concentration 80): 56.5719%
- % inhibition Apo pol 5' (DRC-2, concentration 2.5): 8%
- % inhibition Apo pol 5' (DRC-2, concentration 5): 12%
- % inhibition Apo pol 5' (DRC-2, concentration 20): 17%
- % inhibition Apo pol 5' (DRC-2, concentration 40): 20%
- % inhibition Apol 40' (DRC-2, concentration 10): 17%
- % inhibition Apol 40' (DRC-2, concentration 20): 20%
- % inhibition Apol 40' (DRC-2, concentration 40): 25%
- % inhibition ApPOL 90' (DRC-2, concentration 10): 17%
- % inhibition ApPOL 90' (DRC-2, concentration 20): 22%
- % inhibition ApPOL 90' (DRC-2, concentration 40): 25%
- % inhibition apPOL 180' (DRC-2, concentration 5): 8%
- % inhibition apPOL 180' (DRC-2, concentration 10): 12%
- % inhibition apPOL 180' (DRC-2, concentration 40): 22%
- % inhibition Apo pol 5' 2.5 (DRC-2, read at 5', concentration 2.5): 8%
- % inhibition Apo pol 5' 5 (DRC-2, read at 5', concentration 5): 12%
- % inhibition Apo pol 5' 10 (DRC-2, read at 5', concentration 10): 13%
- % inhibition Apo pol 5' 20 (DRC-2, read at 5', concentration 20): 17%
- % inhibition Apo pol 5' 40 (DRC-2, read at 5', concentration 40): 20%
- % inhibition Apo pol 5' 80 (DRC-2, read at 5', concentration 80): 36%
- % inhibition Apol 40' 2.5 (DRC-2, read at 40', concentration 2.5): 6.51%
- % inhibition Apol 40' 5 (DRC-2, read at 40', concentration 5): 15%
- % inhibition Apol 40' 10 (DRC-2, read at 40', concentration 10): 17%
- % inhibition Apol 40' 20 (DRC-2, read at 40', concentration 20): 20%
- % inhibition Apol 40' 40 (DRC-2, read at 40', concentration 40): 25%
- % inhibition Apol 40' 80 (DRC-2, read at 40', concentration 80): 47%
- % inhibition ApPOL 90' 2.5 (DRC-2, read at 90', concentration 2.5): 4.24%
- % inhibition ApPOL 90' 5 (DRC-2, read at 90', concentration 5): 14%
- % inhibition ApPOL 90' 10 (DRC-2, read at 90', concentration 10): 17%
- % inhibition ApPOL 90' 20 (DRC-2, read at 90', concentration 20): 22%
- % inhibition ApPOL 90' 40 (DRC-2, read at 90', concentration 40): 25%
- % inhibition ApPOL 90' 80 (DRC-2, read at 90', concentration 80): 51%
- % inhibition apPOL 180' 2.5 (DRC-2, concentration 2.5): -0.201%
- % inhibition apPOL 180' 5 (DRC-2, concentration 5): 8%
- % inhibition apPOL 180' 10 (DRC-2, concentration 10): 12%
- % inhibition apPOL 180' 20 (DRC-2, concentration 20): 18%
- % inhibition apPOL 180' 40 (DRC-2, concentration 40): 22%
- % inhibition apPOL 180' 80 (DRC-2, concentration 80): 52%

SMILES: O=C(O)c1ccc(-c2nc3cc(-c4ccc5nc(-c6ccc(C(=O)O)cc6)[nH]c5c4)ccc3[nH]2)cc1 [Molecule 1]
- IC50 (read-out: IC50 Pf-apPOL, Table 2): 5.9 ± 0.9 µM
- IC50 (supplemental file 2, sheet IC50 nontoxic compounds, Pf-apPOL): 5.92 µM

SMILES: COc1ccc(-c2cc3nc4c(c(=O)n3[nH]2)CCN(C(=O)CCc2ccccc2)C4)cc1 [Molecule 17, COc1ccc(cc1)c1[nH]n2c(c1)nc1c(c2=O)CCN(C1)C(=O)CCc1ccccc1]
- DNA Pol ('DNA Pol' of the 186 hits list (primary screen value)): 52
- DNA Pol (DNA Pol (primary screen value)): 52
- % inhibition Apo pol 10' (DRC-1, concentration 2.5): 3%
- % inhibition Apo pol 10' (DRC-1, concentration 5): 30%
- % inhibition Apo pol 10' (DRC-1, concentration 10): 64%
- % inhibition Apo pol 10' (DRC-1, concentration 20): 81%
- % inhibition Apo pol 10' (DRC-1, concentration 40): 82%
- % inhibition Apo pol 10' (DRC-1, concentration 80): 78%
- % inhibition Apol 90' (DRC-1, concentration 2.5): -3.33%
- % inhibition Apol 90' (DRC-1, concentration 5): 18%
- % inhibition Apol 90' (DRC-1, concentration 10): 49%
- % inhibition Apol 90' (DRC-1, concentration 20): 69%
- % inhibition Apol 90' (DRC-1, concentration 40): 72%
- % inhibition Apol 90' (DRC-1, concentration 80): 78%
- % inhibition apPOL 180' (DRC-1, concentration 2.5): -7%
- % inhibition apPOL 180' (DRC-1, concentration 5): 7.5%
- % inhibition apPOL 180' (DRC-1, concentration 10): 34%
- % inhibition apPOL 180' (DRC-1, concentration 20): 55%
- % inhibition apPOL 180' (DRC-1, concentration 40): 58%
- % inhibition apPOL 180' (DRC-1, concentration 80): 70%
- % inhibition Apo pol 5' (DRC-2, concentration 2.5): -5.33%
- % inhibition Apo pol 5' (DRC-2, concentration 5): 12%
- % inhibition Apo pol 5' (DRC-2, concentration 10): 31%
- % inhibition Apo pol 5' (DRC-2, concentration 20): 43%
- % inhibition Apo pol 5' (DRC-2, concentration 40): 44%
- % inhibition Apo pol 5' (DRC-2, concentration 80): 38%
- % inhibition Apol 40' (DRC-2, concentration 2.5): -5.29%
- % inhibition Apol 40' (DRC-2, concentration 5): 14%
- % inhibition Apol 40' (DRC-2, concentration 10): 35%
- % inhibition Apol 40' (DRC-2, concentration 20): 54%
- % inhibition Apol 40' (DRC-2, concentration 40): 57%
- % inhibition Apol 40' (DRC-2, concentration 80): 58%
- % inhibition ApPOL 90' (DRC-2, concentration 2.5): -4.53%
- % inhibition ApPOL 90' (DRC-2, concentration 5): 13%
- % inhibition ApPOL 90' (DRC-2, concentration 10): 33%
- % inhibition ApPOL 90' (DRC-2, concentration 20): 53%
- % inhibition ApPOL 90' (DRC-2, concentration 40): 57%
- % inhibition ApPOL 90' (DRC-2, concentration 80): 61%
- % inhibition apPOL 180' (DRC-2, concentration 2.5): -5%
- % inhibition apPOL 180' (DRC-2, concentration 5): 6%
- % inhibition apPOL 180' (DRC-2, concentration 10): 24%
- % inhibition apPOL 180' (DRC-2, concentration 20): 44%
- % inhibition apPOL 180' (DRC-2, concentration 40): 50%
- % inhibition apPOL 180' (DRC-2, concentration 80): 58%
- % inhibition Apo pol 10' [1]: 78%
- % inhibition Apol 90' [1]: 78%
- % inhibition apPOL 180' (first dose-response set, concentration 40): 58%

Reference: publication PMC9090415, “Discovery of small molecule inhibitors of Plasmodium falciparum apicoplast DNA polymerase” (Journal of Enzyme Inhibition and Medicinal Chemistry, 2022)
